Measured values: patent publication US12157730B2, “Heteroaryl derivative, method for producing same, and pharmaceutical composition comprising same as effective component” (VORONOI INC., priority 2019, dated 2024)

Target: T1, Ba/F3 cell EGFR Exon20 ins NPH (Homo sapiens, UniProt P00533, INS773NPH)
T1 construct: expressed in transfected cells; host or cells: Ba/F3
Test: Ba/F3 cell proliferation suppression, EGFR Exon20 ins NPH
Type: cell-based
Details: GI50 class; Ba/F3 cell line with NPH inserted at Exon20 of EGFR; 72 hours
How it was run: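 Cells were seeded 24 h before dosing and then treated for 72 hours with compound at final concentrations of 0.3 nM to 50 um. Live cells were measured by CellTiter-Glo luminescence, and GI50 values were derived from growth ratio relative to control across three repeats.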

Structure (SMILES) | Ba/F3 (NPH) Activity
C=CC(=O)Nc1cc(Nc2cc(N3OCC[C@@H]3c3c(F)ccc(F)c3F)ncn2)c(OC)cc1N1CCC(N2CCOCC2)CC1 [compound 632, N-(4-methoxy-2-(4-morpholinopiperidine-1-yl)-5-((6-((R)-3-(2,3,6-trifluorophenyl)isoxazolidine-2-yl)pyrimidine-4-yl)amino)phenyl)acrylamide] | A (GI50 < 50 nM)
C=CC(=O)Nc1cc(Nc2cc(N3OCC[C@@H]3c3ccc(C)nc3)ncn2)c(OC)cc1N1CCC(N2C[C@H]3C[C@@H]2CN3C)CC1 [Example 234, N-(4-methoxy-2-(4-((1R,4R)-5-methyl-2,5-diazabicyclo[2.2.1]heptane-2-yl)piperidine-1-yl)-5-((6-((R)-3-(6-methylpyridine-3-yl)isoxazolidine-2-yl)pyrimidine-4-yl)amino)phenyl)acrylamide] | C (500 nM ≤ GI50 < 5000 nM)
C=CC(=O)Nc1cc(Nc2cc(N3OCC[C@@H]3c3cccc(Cl)c3)ncn2)c(OC)cc1N1CCN(CC)CC1 [compound 411, N-(5-((6-((R)-3-(3-chlorophenyl)isoxazolidine-2-yl)pyrimidine-4-yl)amino)-2-(4-ethylpiperazine-1-yl)-4-methoxyphenyl) acrylamide] | A (GI50 < 50 nM)
C=CC(=O)Nc1cc(Nc2cc(N3OCC[C@@H]3c3cccc4ccccc34)ncn2)c(OC)cc1N1CCN(C2COC2)CC1 [compound 439, N-(4-methoxy-5-((6-((R)-3-(naphthalene-1-yl)isoxazolidine-2-yl)pyrimidine-4-yl)amino)-2-(4-(oxetane-3-yl)piperazine-1-yl)phenyl) acrylamide] | A (GI50 < 50 nM)
C=CC(=O)Nc1cc(Nc2cc(N3OCC[C@@H]3c3ccc(F)cc3F)ncn2)c(OC)cc1N1CCN(C2CCN(C)CC2)CC1 [compound 345, N-(5-((6-((R)-3-(2,4-difluorophenyl)isoxazolidine-2-yl)pyrimidine-4-yl)amino)-4-methoxy-2-(4-(1-methylpiperidine-4-yl)piperazine-1-yl)phenyl)acrylamide] | A (GI50 < 50 nM)
C=CC(=O)Nc1cc(Nc2cc(N3OCC[C@@H]3c3c(F)ccc(F)c3F)ncn2)c(OC)cc1N1CCN(CC)CC1 [compound 631, N-(2-(4-ethylpiperazine-1-yl)-4-methoxy-5-((6-((R)-3-(2,3,6-trifluorophenyl)isoxazolidine-2-yl)pyrimidine-4-yl)amino)phenyl)acrylamide] | B (50 nM ≤ GI50 < 500 nM)
C=CC(=O)Nc1cc(Nc2cc(N3OCC[C@@H]3c3cccc(Cl)c3Cl)ncn2)c(OC)cc1N1CCN(CC)CC1 [compound 480, N-(5-((6-((R)-3-(2,3-dichlorophenyl)isoxazolidine-2-yl)pyrimidine-4-yl)amino)-2-(4-ethylpiperazine-1-yl)-4-methoxyphenyl) acrylamide] | A (GI50 < 50 nM)
C=CC(=O)Nc1cc(Nc2cc(N3OCC[C@@H]3c3cc(F)cc(F)c3)ncn2)c(OC)cc1N1CC[C@@H](CN(C)C)C1 [compound 625, N-(5-((6-((R)-3-(3,5-difluorophenyl)isoxazolidine-2-yl)pyrimidine-4-yl)amino)-2-((S)-3-((dimethylamino)methyl)pyrolidine-1-yl)-4-methoxyphenyl) acrylamide] | A (GI50 < 50 nM)
C=CC(=O)Nc1cc(Nc2cc(N3OCC[C@@H]3c3ccc(F)cc3)ncn2)c(OC)cc1N1CCC(N2C[C@H]3CCN(C)[C@H]3C2)CC1 [compound 541, N-(5-((6-((R)-3-(4-fluorophenyl)isoxazolidine-2-yl)pyrimidine-4-yl)amino)-4-methoxy-2-(4-((3aR,6aR)-1-methylhexahydropyrrolo [3,4-b]pyrrole-5(1H)-yl)piperidine-1-yl)phenyl)acrylamide] | A (GI50 < 50 nM)
C=CC(=O)Nc1cc(Nc2cc(N3OCC[C@@H]3c3ccccc3)ncn2)c(OC)cc1N1CCC(N(C)CCOC)CC1 [compound 736, N-(4-methoxy-2-(4-((2-methoxyethyl) (methyl)amino)piperidine-1-yl)-5-((6-((R)-3-phenylisoxazolidine-2-yl)pyrimidine-4-yl)amino)phenyl) acrylamide] | A (GI50 < 50 nM)
C=CC(=O)Nc1cc(Nc2cc(N3OCC[C@@H]3c3cccc(F)c3F)ncn2)c(OC)cc1N1CCC(N2CCN(C3CC3)[C@@H](C)C2)CC1 [Example 175, N-(2-(4-((S)-4-cyclopropyl-3-methylpiperazine-1-yl)piperidine-1-yl)-5-((6-((R)-3-(2,3-difluorophenyl)isoxazolidine-2-yl)pyrimidine-4-yl)amino)-4-methoxyphenyl) acrylamide] | A (GI50 < 50 nM)
C=CC(=O)Nc1cc(Nc2cc(N3OCC[C@@H]3c3cc(F)cc(F)c3)ncn2)c(OC)cc1N1CCC(N2C[C@H]3CC[C@@H](C2)N3C2CC2)CC1 [Example 115, N-(2-(4-((1R,5S)-8-cyclopropyl-3,8-diazabicyclo[3.2.1]octan-3-yl)piperidine-1-yl)-5-((6-((R)-3-(3,5-difluorophenyl)isoxazolidine-2-yl)pyrimidine-4-yl)amino)-4-methoxyphenyl) acrylamide] | A (GI50 < 50 nM)
C=CC(=O)Nc1cc(Nc2cc(N3OCC[C@@H]3c3cc(F)cc(F)c3)ncn2)c(OC)cc1N1CCC(N2CCNCC2)CC1 [compound 754, N-(5-((6-((R)-3-(3,5-difluorophenyl)isoxazolidine-2-yl)pyrimidine-4-yl)amino)-4-methoxy-2-(4-(piperazine-1-yl)piperidine-1-yl)phenyl) acrylamide] | B (50 nM ≤ GI50 < 500 nM)
C=CC(=O)Nc1cc(Nc2cc(N3OCC[C@@H]3c3ccc(F)c(Cl)c3)ncn2)c(OC)cc1N1C[C@H]2CCN(C)[C@H]2C1 [compound 317, N-(5-((6-((R)-3-(3-chloro-4-fluorophenyl)isoxazolidine-2-yl)pyrimidine-4-yl)amino)-4-methoxy-2-((3aR, 6aR)-1-methylhexahydropyrrolo [3,4-b]pyrrole-5(1H)-yl)phenyl)acrylamide] | A (GI50 < 50 nM)
C=CC(=O)Nc1cc(Nc2cc(N3OCC[C@@H]3c3cccc(C#N)c3)ncn2)c(OC)cc1N1CCC(N2CCN(C(C)=O)CC2)CC1 [compound 434, N-(2-(4-(4-acetylpiperazine-1-yl)piperidine-1-yl)-5-((6-((R)-3-(3-cyanophenyl)isoxazolidine-2-yl)pyrimidine-4-yl)amino)-4-methoxyphenyl) acrylamide] | A (GI50 < 50 nM)

More lines, now with the values ahead:

Ba/F3 (NPH) Activity | Structure (SMILES)
A (GI50 < 50 nM) | C=CC(=O)Nc1cc(Nc2cc(N3OCC[C@@H]3c3cccc(F)c3F)ncn2)c(OC)cc1N1CCC(N2CCOCC2)CC1 [compound 920, N-(5-((6-((R)-3-(2,3-difluorophenyl)isoxazolidine-2-yl)pyrimidine-4-yl)amino)-4-methoxy-2-(4-morpholinopiperidine-1-yl)phenyl)acrylamide]
A (GI50 < 50 nM) | C=CC(=O)Nc1cc(Nc2cc(N3OCC[C@@H]3c3ccc(F)cc3)ncn2)c(OC)cc1N1CCC(N2C[C@H]3C[C@@H]2CO3)CC1 [compound 813, N-(2-(4-((1R,4R)-2-oxa-5-azabicyclo [2.2.1]heptane-5-yl)piperidine-1-yl)-5-((6-((R)-3-(4-fluorophenyl)isoxazolidine-2-yl)pyrimidine-4-yl)amino)-4-methoxyphenyl) acrylamide]
A (GI50 < 50 nM) | C=CC(=O)Nc1cc(Nc2cc(N3OCC[C@@H]3c3cccc(F)c3)ncn2)c(OC)cc1N(C)CCOC [compound 838, N-(5-((6-((R)-3-(3-fluorophenyl)isoxazolidine-2-yl)pyrimidine-4-yl)amino)-4-methoxy-2-((2-methoxyethyl)(methyl)amino)phenyl) acrylamide]
A (GI50 < 50 nM) | C=CC(=O)Nc1cc(Nc2cc(N3OCC[C@@H]3c3cc(F)cc(F)c3)ncn2)c(OC)cc1N1CCC(N2CCN(C)C[C@@H]2C)CC1 [compound 762, N-(5-((6-((R)-3-(3,5-difluorophenyl)isoxazolidine-2-yl)pyrimidine-4-yl)amino)-2-(4-((S)-2,4-dimethylpiperazine-1-yl)piperidine-1-yl)-4-methoxyphenyl) acrylamide]
A (GI50 < 50 nM) | C=CC(=O)Nc1cc(Nc2cc(N3OCC[C@@H]3c3cc(F)cc(F)c3)ncn2)c(OC)cc1N1CCC(N2CCN(C)[C@@H](C)C2)CC1 [compound 760, N-(5-((6-((R)-3-(3,5-difluorophenyl)isoxazolidine-2yl)pyrimidine-4-yl)amino)-2-(4-((S)-3,4-dimethylpiperazine-1-yl)piperidine-1-yl)-4-methoxyphenyl) acrylamide]
A (GI50 < 50 nM) | C=CC(=O)Nc1cc(Nc2cc(N3OCC[C@@H]3Cc3cccc(Cl)c3Cl)ncn2)c(OC)cc1N1CCN(CC)CC1 [compound 1008, N-(5-((6-((S)-3-(2,3-dichlorobenzyl)isoxazolidine-2-yl)pyrimidine-4-yl)amino)-2-(4-ethylpiperazine-1-yl)-4-methoxyphenyl) acrylamide]
A (GI50 < 50 nM) | C=CC(=O)Nc1cc(Nc2cc(N3OCC[C@@H]3c3cccc(F)c3F)ncn2)c(OC)cc1N1CCN(C)C[C@@H]1C [compound 886, N-(5-((6-((R)-3-(2,3-difluorophenyl)isoxazolidine-2-yl)pyrimidine-4-yl)amino)-2-((S)-2,4-dimethylpiperazine-1-yl)-4-methoxyphenyl) acrylamide]
C (500 nM ≤ GI50 < 5000 nM) | C=CC(=O)Nc1cc(Nc2cc(N3OCC[C@H]3Cc3ccccc3)ncn2)c(OC)cc1N1CCC(N2CCN(C3CC3)CC2)CC1 [compound 956, N-(5-((6-((R)-3-benzylisoxazolidine-2-yl)pyrimidine-4-yl)amino)-2-(4-(4-cyclopropylpiperazine-1-yl)piperidine-1-yl)-4-methoxyphenyl) acrylamide]
